pIC50: −log10 of the molar value. Values joined by “and” are separate entries in the source; they are usually repeats but may differ in a detail not shown here. Equal entries are not always repeated.
Assays:
[1] = system: Pseudomonas aeruginosa PAO1 strain; experiment: Acute P. aeruginosa-induced infection in mouse, association with tobramycin; assay type: in vivo, male C57BL6/J mice
Description: (§1) Pseudomonas aeruginosa PAO1 strain is a sequenced, well-characterized strain used as reference strain. Bacteria were grown overnight at 37° C. in Lysogeny Broth Lennox (LB) (BD Europe, Le pont de Claix, France) under orbital shaking (300 rpm) from frozen stock. A secondary culture was performed during 2 hours and before harvesting the bacteria by centrifugation (2000 g, 5 min), and two washings with sterile phosphate-buffered saline (PBS). Turbidity was then approximated by measurement of optical density at A600 (Ultrospec 10 Cell Density Meter, General Electric, Fairfield, Conn.) and verified by serial dilution and plating on LB agar Plates.
(§2) Vehicle was phosphate buffered saline, and test solutions are Glycomimetic Compound (I) 40 mM in PBS, and Compound A 40 mM in PBS. Test articles were provided by GlycoMimetics and stored at −20° C. Tobramycin (1 g) was provided by Laboratoire EREMPHARMA (25 rue Greffulhe—92300 Levallois) and stored at (+4° C.).
(§3) Male C57BL6/J mice (8 weeks old) purchased from Janvier Labs (Route du Genest, 53940 Le Genest-Saint-Isle) were housed a pathogen-free unit of the Lille University Animal Care Facility and allowed food and water ad lib.
(§4) Mice were anesthetized briefly with inhaled sevoflurane (Sevorane™, Abbott, Queensborough, UK), allowing maintenance of spontaneous breathing after which 50 μL of the bacterial solution were administered intranasally representing a total of 1.10^6 CFU/mouse (except for tobramycin study conducted with lethal inoculate of […]). Control mice receive 50 μL of PBS. All mice were sacrificed at 24 h (except for survival studies, mice were monitored on weight and clinical score 96 h post bacterial infection). Glycomimetic Compound (I) or Compound A were administered IN with the inoculum or post-infection (see FIG. 8 and FIG. 12). In appropriate groups, mice were treated 24 h after infection with 12 mg/kg tobramycin administered intraperitoneally.
(§5) For each group, treatment effect was measured with the disease score and daily mortality rate post challenge. The evolution of the disease score assessing the clinical appearance of the animals was evaluated on 4 items scored from 0 to 10 summarized in Table 1 (body temperature, appearance of the bristle, behavior and weight loss; 0: healthy mice, 10 moribund mice). All disease score assessments were performed by two experimenters throughout the study.
(§6) Statistical analysis was performed using Prism 5 software (Graph-Pad Software, San Diego Calif.). Values are expressed as mean±SEM. Comparison groups were analysed with the nonparametric Mann-Whitney test. Survival curves were analysed using Log-rank (Mantel-Cox) test. *p<0.05; ** p<0.01; *** p<0.001 Results are mean+/−Standard error.
Mice, 8 weeks old C57Bl/6J male, received intranasally 2.10^7 CFU of PAO1 and Glycomimetic Compound (I) or Compound A at different time points with or without an intraperitoneal injection of tobramycin 12 mg/kg (FIG. 12).

PA-IL = target: T1, PA-IL (Pseudomonas aeruginosa, UniProt Q05097); experiment: Assay for PA-IL antagonist activity (competition with α-galactose-PAA-biotin/streptavidin-HRP on coated plate); assay type: binding
T1 construct: purchased Sigma-Aldrich, St. Louis, Mo
Description: (§7) Wells of a microtiter plate (plate 1) are coated with PA-IL (Sigma-Aldrich, St. Louis, Mo.) by incubation for 2 hrs at 37° C. The wells are then blocked for 2 hrs by the addition of 1% bovine serum albumin (BSA) diluted in TBS-Ca (50 mM TrisHCl, 150 mM NaCl, 2 mM CaCl2) pH 7.4) mixed 1:1 v/v with Stabilcoat (Surmodics, Eden Prairie, Minn.). In a second low-binding round-bottom microtiter plate (plate 2), test antagonists are serial diluted in 1% BSA in TBS-Ca/Stabilcoat (60 μl/well). Preformed conjugates of α-galactose-PAA-biotin (GlycoTech Corp, Gaithersburg, Md.) mixed with streptavidin-HRP (KPL Labs, Gaithersburg, Md.) are added to each well of plate 2 (60 μl/well of 2 μg/ml). Plate 1 is then washed with TBS-Ca and 100 μl/well are transferred from plate 2 to plate 1. After incubation at room temperature for 2 hrs, plate 1 is washed and 100 μl of TMB reagent (KPL Labs, Gaithersburg, Md.) is added to each well. After incubation for 5 minutes at room temperature, the reaction is stopped by adding 100 μl/well of 1M H3PO4 and the absorbance of light at 450 nm is determined by a microtiter plate reader. Absorbance is plotted as a function of antagonist concentration and the concentration at which 50% maximal absorbance (IC50) is obtained is determined from the plot.

PA-IIL = target: T2, PA-IIL (Pseudomonas aeruginosa, UniProt Q9HYN5); experiment: Assay for PA-IIL antagonist activity (competition with fucose-PAA-biotin/streptavidin-HRP on coated plate); assay type: binding
T2 construct: Dr. Wimmerova, Masaryk University, Brno, Czech Republic (academic supplier)
Description: as §7, with “PA-IIL (Dr. Wimmerova, Masaryk University, Brno, Czech Republic)” for “PA-IL (Sigma-Aldrich, St. Louis, Mo.)”, “CaCl2” for “CaCl2)”, “fucose-PAA-biotin” for “α-galactose-PAA-biotin”

[2] = system: Pseudomonas aeruginosa strain PaO; experiment: Acute lung injury model, compound co-administered with bacteria; assay type: in vivo, male BalB/c mice
Description: Cohorts of male BalB/c mice (n=5/group) were infected intranasally with either a low (1-2×10^6 CFU) or a high (1-2×10^7 CFU) inoculum of Pseudomonas aeruginosa strain PaO, in combination with saline or multiple dose levels ([…], corresponding to 10, 25 and 50 mg/kg, respectively) of glycomimetic compound (I) or compound A. The bacteria were coadministered with glycomimetic compound (I) or compound A directly into the lungs of each mouse by intratracheal (i.t.) injection via the oropharynx using a 24-gauge feeding needle (total volume of 0.05 mL).
The animals were observed daily beginning 24 hours post infection and cumulative clinical (disease) scores were determined for each mouse (FIGS. 4 and 6). Parameters assessed were: (a) for appearance (smooth→bristly); (b) body temperature (normal→cold); (c) movement (moving→prostate); and (d) weight loss. Clinical scoring ranged from 0 (normal, uninfected appearance) to 10 (severely compromised).
Animals were observed daily for morbidity/mortality and day of death recorded. Kaplan-Meier analysis was used to estimate survival function from life-span data and statistical values derived from a log rank test.

Pseudomonas aeruginosa = experiment: Acute lung injury model, treatment with tobramycin; assay type: in vivo, mice
Description: Mice were co-administered 2×10^7 CFU Pseudomonas aeruginosa with or without compound A or glycomimetic compound (I) in combination with 12 mg/kg tobramycin. The tobramycin was administered intraperitoneally 6 hours after bacterial challenge.

[3] = system: Pseudomonas aeruginosa PAO1 strain; experiment: Acute P. aeruginosa-induced infection in mouse, monotherapy at different inoculation times; assay type: in vivo, male C57BL6/J mice
Description: as §1, §2, §3, §4, §5, §6
Mice, 8 weeks old C57Bl/6J male, received intranasally 1.10^7 CFU of PaO1 and Glycomimetic Compound (I) or Compound A at different time points, as described in FIG. 8.
We analyzed weight loss, clinical disease score and mortality. Fourteen independent cohorts of 5 mice each were tested. Each cohort included an equal representation of testing conditions. All stage 1 cohorts were tested over 4 days. At the conclusion of Stage 1, there was a total of 10 mice for each of the above 7 treatment groups.

[4] = Uninfected mice treated with compound (non-specific toxicity control); assay type: in vivo; details: 40 mM
[5] = 2.10^7 CFU PAO1, agent alone, H4 administration

T2 sequence (Q9HYN5 entry or part of it): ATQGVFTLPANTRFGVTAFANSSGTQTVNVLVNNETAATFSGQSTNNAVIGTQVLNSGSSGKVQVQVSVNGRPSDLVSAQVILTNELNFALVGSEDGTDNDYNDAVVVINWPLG
T1 sequence (Q05097 whole entry): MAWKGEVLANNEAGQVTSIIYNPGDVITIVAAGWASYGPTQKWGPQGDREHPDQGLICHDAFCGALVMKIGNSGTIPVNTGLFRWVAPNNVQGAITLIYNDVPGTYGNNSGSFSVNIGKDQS

CC1CCC[C@@H](O[C@@H]2OC(CO)[C@H](O)C(O[C@H]3OC(CO)[C@H](O)C(O)C3O)C2O)C1OC1O[C@@H](C)C(O)C(O)[C@@H]1O (stereo partly drawn) [Glycomimetic Compound (I)]
survival [1, 5]: 30% | survival ([1]; 2.10^7 CFU PAO1, association with tobramycin 12 mg/kg i.p., H4 administration): 90% | survival ([1]; 2.10^7 CFU PAO1, association with tobramycin 12 mg/kg i.p., at 6 h): 50% | score disease ([1]; with tobramycin, at 4 hours): lower score | pIC50 (PA-IL): 5.14 | pIC50 (PA-IIL): 6.36 | survival ([2]; high inoculum, co-administered 20 mM, at 96 hr): 60% | survival ([2]; high inoculum, co-administered 40 mM, at 96 hr): 100% | survival ([2]; low inoculum 2×10^6 CFU, co-administered 40 mM compound, i.t.): 100% | survival (Pseudomonas aeruginosa; 8 mM in combination with 12 mg/kg tobramycin): 40% | survival (Pseudomonas aeruginosa; 20 mM in combination with 12 mg/kg tobramycin): 100% | survival (Pseudomonas aeruginosa; 40 mM in combination with 12 mg/kg tobramycin): 100% | survival benefit (Pseudomonas aeruginosa; 8, 20 and 40 mM co-administered with bacteria, plus 12 mg/kg tobramycin i.p. 6 hours after challenge): significantly increased | survival ([3]; 1.10^7 CFU PaO1, compound administered after 4 hours of infection): 40% | survival ([3]; 1.10^7 CFU PaO1, compound administered after 6 hours of infection): 25% and 20% | survival ([3]; 1.10^7 CFU PaO1, compound administered after one hour of infection): 54.5% | survival ([3]; 1.10^7 CFU PaO1, compound administered with the bacteria): 90% | effect on weight and score disease ([3]; monotherapy, FIGS. 10 and 11): superior to Compound A | morbidity or mortality [4]: no morbidity or mortality was observed

NC[C@H]1O[C@H](O[C@H]2[C@H](O)[C@@H](O[C@H]3O[C@H](CO)[C@@H](O)[C@H](N)[C@H]3O)[C@H](N)C[C@@H]2N)[C@H](N)C[C@@H]1O [tobramycin, reference compound]
survival [1, 5]: 70% | survival ([1]; 2.10^7 CFU PAO1, agent alone, at 6 h): 10%

— patent US11045485B2, “Glycomimetic inhibitors of PA-IL and PA-IIL lectins” (GlycoMimetics, Inc., priority 2016, dated 2021)
